Consider three compounds from patent US20110124588A1, “SYNERGISTIC ACTIVE INGREDIENT COMBINATIONS” (Bayer Cropscience AG, priority 2008, published 2011).

Like-named read-outs stand apart in the source and are kept apart here.

For one test, the system named is Myzus persicae. As to the kind of experiment: Myzus persicae test (spray treatment of infested cabbage leaves). It is filed as in vivo, green peach aphid (Myzus persicae). Particulars: Myzus persicae. How it is done:
(§1) If the actual kill rate exceeds the calculated value, the kill of the combination is superadditive, i.e. a synergistic effect is present. In this case, the actually observed kill rate must exceed the value calculated using the above formula for the expected kill rate (E).
(§2) solvents: 78 parts by weight of acetone • • 1.5 parts by weight of dimethylformamide emulsifier: 0.5 part by weight of alkylaryl polyglycol ether
After the desired period of time, the kill in % is determined 100% means that all aphids have been killed; 0% means that none of the aphids have been killed. The kill rates determined are entered into Colby's formula.

The test system of another test is Phaedon cochleariae. As to the kind of experiment: Phaedon cochleariae larvae test (sprayed cabbage leaves). Type of test: in vivo, mustard beetle (Phaedon cochleariae) larvae. Particulars: Phaedon cochleariae, single active compound. How it is done:
as §1
Solvents: 78 parts by weight of acetone • • 1.5 parts by weight of dimethylformamide Emulsifier: 0.5 part by weight of alkylaryl polyglycol ether
After the desired period of time, the kill in % is determined 100% means that all beetle larvae have been killed; 0% means that none of the beetle larvae have been killed. The kill rates determined are entered into Colby's formula.

The next test has as its system Spodoptera frugiperda. Put plainly: Spodoptera frugiperda larvae test (sprayed cabbage leaves). It is filed as in vivo, army worm (Spodoptera frugiperda) larvae. Particulars: Spodoptera frugiperda.
Excerpt: (§3) The expected activity of a given combination of two active compounds can be calculated as follows, according to S. R. Colby, Weeds 15 (1967), 20-22:
(§4) X is the kill rate, expressed as a percentage of the untreated control, when employing active compound A at an application rate of m g/ha or in a concentration of m ppm, Y is the kill rate, expressed as a percentage of the untreated control, when employing active compound B at an application rate of n g/ha or in a concentration of n ppm and E is the kill rate, expressed as a percentage of the untreated control, when employing active compounds A and B at application rates of m and n g/ha or in a concentration of m and n ppm, then
as §1, §2
(§5) To produce a suitable preparation of active compound, 1 part by weight of active compound is mixed with the stated amounts of solvents and emulsifier, and the concentrate is diluted with emulsifier-containing water to the desired concentration.
Cabbage leaves (Brassica oleracea) are treated by spraying with the active compound preparation of the desired concentration and are populated with larvae of the army worm (Spodoptera frugiperda) while the leaves are still moist.
After the desired period of time, the kill in % is determined 100% means that all caterpillars have been killed; 0% means that none of the caterpillars have been killed. The kill rates determined are entered into Colby's formula.

For the next test, the system named is Tetranychus urticae. As to the kind of experiment: Tetranychus urticae test (OP-resistant/spray treatment). It is filed as in vivo, greenhouse red spider mite (Tetranychus urticae). Particulars: Tetranychus urticae.
Excerpt: as §3, §4, §1, §2, §5
Discs of bean leaves (Phaseolus vulgaris) which are infested by all stages of the greenhouse red spider mite (Tetranychus urticae) are sprayed with an active compound preparation of the desired concentration.
After the desired period of time, the activity in % is determined 100% means that all spider mites have been killed; 0% means that none of the spider mites have been killed.

The mark [1] stands for this setting: 24 h, read-out: Kill in % after 1 d.
[2] abbreviates: 144 h, read-out: Kill in % after 6 d.
The mark [3] stands for this setting: 48 h, 2 d, read-out: Kill in % after 2 d.
Setting [4] is: 144 h, 6 d, read-out: Kill in % after 6 d.
The mark [5] stands for this setting: 48 h, read-out: Kill in % after 2 d.

Take `CC(c1ccc(C(F)(F)F)nc1)S(C)(=O)=NC#N` (centres unmarked) [compound (I-8)]: the pest or weed control at 0.16 g/ha came to 0% in the test on Myzus persicae (setting [1]); 60% in the test with Myzus persicae (setting [2]); 0% in the test with Phaedon cochleariae (setting [3]); 0% in the test with Phaedon cochleariae (setting [4]); 0% in the test on Spodoptera frugiperda (setting [5]); 0% in the test with Spodoptera frugiperda (setting [2]). In addition, in the test with Tetranychus urticae (setting [2]), the pest or weed control at 0.16 g/ha came to 0%. Besides, the pest or weed control at 0.8 g/ha in the test with Phaedon cochleariae (setting [3]), in the test with Phaedon cochleariae (setting [4]), in the test with Spodoptera frugiperda (setting [5]), in the test on Spodoptera frugiperda (setting [2]), in the test on Tetranychus urticae (setting [5]) and with Tetranychus urticae (setting [2]) was 0% each time. The pest or weed control at 4 g/ha in the test on Phaedon cochleariae (setting [3]), in the test on Phaedon cochleariae (setting [4]), with Spodoptera frugiperda (setting [2]), in the test on Tetranychus urticae (setting [5]) and in the test with Tetranychus urticae (setting [2]) was 0% in each case. Besides, the pest or weed control at 20 g/ha in the test on Phaedon cochleariae (setting [3]) was found to be 0%; in the test with Phaedon cochleariae (setting [4]) it was 17%; in the test on Spodoptera frugiperda (setting [5]), 0%; with Spodoptera frugiperda (setting [2]) it was 0%; with Tetranychus urticae (setting [2]) it was 0%. Moreover, the pest or weed control at 100 g/ha with Phaedon cochleariae (setting [3]) turned out to be 67%; in the test with Phaedon cochleariae (setting [4]), 67%; in the test with Tetranychus urticae (setting [2]), 0%.

As for `Cc1nn(C)c(Oc2ccccc2)c1C=NOCc1ccc(C(=O)OC(C)(C)C)cc1` [fenpyroximate], in the test with Myzus persicae (setting [2]), the pest or weed control at 0.8 g/ha is 0%. Besides, the pest or weed control at 20 g/ha with Phaedon cochleariae (setting [3]) is 0%. Moreover, the pest or weed control at 100 g/ha with Spodoptera frugiperda (setting [2]) is 50%. In the test with Tetranychus urticae (setting [2]), the pest or weed control at 4 g/ha was determined as 60%.

As for `CC1(C)[C@H](C(=O)O[C@H](C#N)c2cccc(Oc3ccccc3)c2)[C@@H]1C=C(Br)Br` [deltamethrin], the pest or weed control at 0.032 g/ha with Myzus persicae (setting [1]) was 0%. Moreover, the pest or weed control at 0.8 g/ha in the test with Phaedon cochleariae (setting [3]) was found to be 67%. Besides, the pest or weed control at 0.16 g/ha with Phaedon cochleariae (setting [4]) is 50%; in the test with Spodoptera frugiperda (setting [2]) it was 17%. Also, the pest or weed control at 4 g/ha with Tetranychus urticae (setting [2]) is 0%.
